Values joined by “and” are separate entries in the source; they are usually repeats but may differ in a detail not shown here. Identical values can stand only once. Inconclusive results and toxic doses are left out.
Tested on: P388 leukemia ip, CD2F1 mice, survival T/C
Test: NCI In Vivo Anticancer Drug Screen. Data for tumor model P388 Leukemia (intraperitoneal) in CD2F1 (CDF1) mice
Details: endpoint: median survival time, higher = longer survival
How it was run: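 Mice carrying the transplanted tumor received test compound or vehicle. Survival was recorded in each group, and the value is the treated-group measurement divided by that of the vehicle-treated control group.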

[1] = dose: 50.0 mg/kg/injection, schedule: Q01DX005 (ip), vehicle: saline with Tween-80
[2] = dose: 100.0 mg/kg/injection, schedule: Q01DX005 (ip), vehicle: saline with Tween-80
[3] = dose: 200.0 mg/kg/injection, schedule: Q01DX005 (ip), vehicle: saline with Tween-80
[4] = dose: 50.0 mg/kg/injection, schedule: Q01DX009 (ip), vehicle: Klucel (hydroxypropylcellulose) (HPC)
[5] = dose: 100.0 mg/kg/injection, schedule: Q01DX009 (ip), vehicle: Klucel (hydroxypropylcellulose) (HPC)
[6] = dose: 200.0 mg/kg/injection, schedule: Q01DX009 (ip), vehicle: Klucel (hydroxypropylcellulose) (HPC)
[7] = dose: 50.0 mg/kg/injection, schedule: Q01DX009 (ip), vehicle: saline
[8] = dose: 100.0 mg/kg/injection, schedule: Q01DX009 (ip), vehicle: saline
[9] = dose: 200.0 mg/kg/injection, schedule: Q01DX009 (ip), vehicle: saline
[10] = dose: 100.0 mg/kg/injection, schedule: Q01DX009 (ip), vehicle: saline with Tween-80
[11] = dose: 200.0 mg/kg/injection, schedule: Q01DX009 (ip), vehicle: saline with Tween-80
[12] = dose: 400.0 mg/kg/injection, schedule: Q01DX009 (ip), vehicle: saline with Tween-80
[13] = dose: 50.0 mg/kg/injection, schedule: Q01DX005 (ip), vehicle: saline
[14] = dose: 100.0 mg/kg/injection, schedule: Q01DX005 (ip), vehicle: saline
[15] = dose: 200.0 mg/kg/injection, schedule: Q01DX005 (ip), vehicle: saline
[16] = dose: 12.5 mg/kg/injection, schedule: Q01DX005 (ip), vehicle: saline
[17] = dose: 60.0 mg/kg/injection, schedule: Q01DX005 (ip), vehicle: saline with Tween-80
[18] = dose: 120.0 mg/kg/injection, schedule: Q01DX005 (ip), vehicle: saline with Tween-80
[19] = dose: 240.0 mg/kg/injection, schedule: Q01DX005 (ip), vehicle: saline with Tween-80

## O=C(O)CC(O)C(F)(F)C(F)(F)C(F)(F)F (stereo not given)
dose: 18.75 mg/kg/injection, schedule: Q04DX003 (ip), vehicle: saline
  T/C: 100 % of control
dose: 37.5 mg/kg/injection, schedule: Q04DX003 (ip), vehicle: saline
  T/C: 95 % of control
dose: 75.0 mg/kg/injection, schedule: Q04DX003 (ip), vehicle: saline
  T/C: 109 % of control

## N#CC12CCC(CC1)CC2Cl (stereo not given)
dose: 0.5 mg/kg/injection, schedule: Q01DX009 (ip), vehicle: saline with Tween-80
  T/C: 108 % of control
dose: 1.0 mg/kg/injection, schedule: Q01DX009 (ip), vehicle: saline with Tween-80
  T/C: 100 % of control
dose: 2.0 mg/kg/injection, schedule: Q01DX009 (ip), vehicle: saline with Tween-80
  T/C: 106 % of control
dose: 4.0 mg/kg/injection, schedule: Q01DX009 (ip), vehicle: saline with Tween-80
  T/C: 113 % of control

## COC(=O)Cc1nc2c(=O)[nH]c(N)nc2[nH]c1=O
dose: 12.5 mg/kg/injection, schedule: Q01DX005 (ip), vehicle: Klucel (hydroxypropylcellulose) (HPC)
  T/C: 95 % of control
dose: 25.0 mg/kg/injection, schedule: Q01DX005 (ip), vehicle: Klucel (hydroxypropylcellulose) (HPC)
  T/C: 96 % of control
dose: 50.0 mg/kg/injection, schedule: Q01DX005 (ip), vehicle: Klucel (hydroxypropylcellulose) (HPC)
  T/C: 102 % of control and 104 % of control

## Cc1ccccc1NC(=O)C(=O)C(C#N)c1ccc(Cl)cc1Cl (stereo not given)
[1]
  T/C: 100 % of control
[2]
  T/C: 100 % of control
[3]
  T/C: 98 % of control

## O=C(Oc1ccccc1)OC1CCCN(C(=O)Oc2ccccc2)C1 (stereo not given)
[4]
  T/C: 93 % of control
[5]
  T/C: 93 % of control
[6]
  T/C: 93 % of control

## Cc1cc(Cl)cnc1N
[7]
  T/C: 99 % of control
[8]
  T/C: 97 % of control
[9]
  T/C: 92 % of control

## O=C(CCCCC(=O)N/N=C\c1ccccn1)N/N=C\c1ccccn1
[10]
  T/C: 109 % of control
[11]
  T/C: 100 % of control
[12]
  T/C: 109 % of control

## CN(C)C1C(=O)C(C(=O)NCNC(CO)(CO)CO)=C(O)C2(O)C(=O)C3=C(O)c4c(O)cccc4C(C)(O)C3CC12 (stereo not given)
[13]
  T/C: 92 % of control
[14]
  T/C: 101 % of control
[15]
  T/C: 100 % of control

## Cc1ccccc1N(CC1CO1)CC1CO1 (stereo not given)
dose: 25.0 mg/kg/injection, schedule: Q01DX009 (ip), vehicle: saline
  T/C: 119 % of control
dose: 100.0 mg/kg/injection, schedule: Q01DX009 (ip), vehicle: acetone
  T/C: 156 % of control
[9]
  T/C: 165 % of control

## COc1ccc(C(=O)O[C@H]2CC[C@@]3(C)[C@@H]4CC[C@H]5[C@]6(O)C[C@H](O)[C@@]7(O)[C@@H](CN8C[C@@H](C)CC[C@H]8[C@@]7(C)O)[C@]6(O)C[C@@]53OC24O)cc1OC
dose: 3.12 mg/kg/injection, schedule: Q01DX005 (ip), vehicle: saline
  T/C: 95 % of control
dose: 6.25 mg/kg/injection, schedule: Q01DX005 (ip), vehicle: saline
  T/C: 95 % of control
[16]
  T/C: 97 % of control

## CCOC(=O)C(C)(OCC)OCC
dose: 25.0 mg/kg/injection, schedule: Q01DX009 (ip), vehicle: saline with Tween-80
  T/C: 101 % of control
dose: 50.0 mg/kg/injection, schedule: Q01DX009 (ip), vehicle: saline with Tween-80
  T/C: 98 % of control
[10]
  T/C: 98 % of control
[11]
  T/C: 98 % of control
[12]
  T/C: 100 % of control

## COCCO[Si](OCCOC)(OCCOC)c1ccccc1
[4]
  T/C: 101 % of control
[5]
  T/C: 107 % of control
[6]
  T/C: 117 % of control

## CCOC(=O)COc1ccc2c(=O)c(C)c(-c3ccccc3)oc2c1
[7]
  T/C: 97 % of control
[8]
  T/C: 101 % of control
[9]
  T/C: 97 % of control

## COC1=C(OC)C(C(O)CO)OC1=O (stereo not given)
dose: 25.0 mg/kg/injection, schedule: Q01DX009 (ip), vehicle: water
  T/C: 98 % of control
dose: 50.0 mg/kg/injection, schedule: Q01DX009 (ip), vehicle: water
  T/C: 98 % of control
dose: 100.0 mg/kg/injection, schedule: Q01DX009 (ip), vehicle: water
  T/C: 90 % of control
dose: 200.0 mg/kg/injection, schedule: Q01DX009 (ip), vehicle: water
  T/C: 99 % of control
dose: 400.0 mg/kg/injection, schedule: Q01DX009 (ip), vehicle: water
  T/C: 96 % of control

## Nc1cc2[nH]ccc2c(=O)[nH]1
[13]
  T/C: 108 % of control
[14]
  T/C: 113 % of control
[15]
  T/C: 114 % of control

## [N-]=[N+]=NCC1OC(n2cnc3c(=O)[nH]c(N)nc32)C(O)C1O (stereo not given)
dose: 60.0 mg/kg/injection, schedule: Q01DX005 (ip), vehicle: Klucel (hydroxypropylcellulose) (HPC)
  T/C: 107 % of control
dose: 120.0 mg/kg/injection, schedule: Q01DX005 (ip), vehicle: Klucel (hydroxypropylcellulose) (HPC)
  T/C: 107 % of control
dose: 240.0 mg/kg/injection, schedule: Q01DX005 (ip), vehicle: Klucel (hydroxypropylcellulose) (HPC)
  T/C: 106 % of control

## O=C(CCl)c1cccnc1C(=O)O
dose: 25.0 mg/kg/injection, schedule: Q01DX009 (ip), vehicle: saline sonified
  T/C: 100 % of control
dose: 50.0 mg/kg/injection, schedule: Q01DX009 (ip), vehicle: saline sonified
  T/C: 100 % of control
dose: 100.0 mg/kg/injection, schedule: Q01DX009 (ip), vehicle: saline sonified
  T/C: 90 % of control

## C[n+]1[se]c2ccccc2c1Cl
dose: 3.12 mg/kg/injection, schedule: Q01DX009 (ip), vehicle: Klucel (hydroxypropylcellulose) (HPC)
  T/C: 105 % of control
dose: 6.25 mg/kg/injection, schedule: Q01DX009 (ip), vehicle: Klucel (hydroxypropylcellulose) (HPC)
  T/C: 99 % of control
dose: 12.5 mg/kg/injection, schedule: Q01DX009 (ip), vehicle: Klucel (hydroxypropylcellulose) (HPC)
  T/C: 99 % of control and 89 % of control

## O=c1[nH]c2cc(Cl)ccc2nc1/C=C(O)/C=C/c1ccccc1
[17]
  T/C: 98 % of control and 89 % of control
[18]
  T/C: 95 % of control
[19]
  T/C: 89 % of control and 91 % of control

## Cc1c(-c2c(Cl)cccc2Cl)noc1CN(C)C
[17]
  T/C: 101 % of control
[18]
  T/C: 100 % of control
[19]
  T/C: 92 % of control

## CCc1nc(N)nc(N)c1-c1ccc(N2CC[N+](C)(C)CC2)cc1
dose: 0.24 mg/kg/injection, schedule: Q01DX005 (ip), vehicle: saline with Tween-80
  T/C: 99 % of control
dose: 0.48 mg/kg/injection, schedule: Q01DX005 (ip), vehicle: saline with Tween-80
  T/C: 101 % of control
dose: 0.94 mg/kg/injection, schedule: Q01DX005 (ip), vehicle: saline with Tween-80
  T/C: 105 % of control
dose: 0.96 mg/kg/injection, schedule: Q01DX005 (ip), vehicle: saline with Tween-80
  T/C: 119 % of control

## C1CC2OC2CC1C1CO1 (stereo not given)
[10]
  T/C: 104 % of control
dose: 100.0 mg/kg/injection, schedule: Q04DX003 (ip), vehicle: saline sonified
  T/C: 100 % of control
[11]
  T/C: 104 % of control
dose: 200.0 mg/kg/injection, schedule: Q04DX003 (ip), vehicle: saline sonified
  T/C: 100 % of control
dose: 400.0 mg/kg/injection, schedule: Q04DX003 (ip), vehicle: saline sonified
  T/C: 109 % of control

## CC(=O)NC(Cc1cccs1)C(=O)O (stereo not given)
[7]
  T/C: 93 % of control
[8]
  T/C: 101 % of control
[9]
  T/C: 101 % of control

## COc1cc2c(cc1OC)C(CCCCCCCC1NCCc3cc(OC)c(OC)cc31)NCC2 (stereo not given)
[16]
  T/C: 102 % of control
dose: 25.0 mg/kg/injection, schedule: Q01DX005 (ip), vehicle: saline
  T/C: 96 % of control
[13]
  T/C: 100 % of control and 101 % of control

## CCN(CC)Cc1c(C)[nH]c2cc(Cl)ccc2c1=O
dose: 100.0 mg/kg/injection, schedule: Q01DX001 (ip), vehicle: saline with Tween-80
  T/C: 88 % of control

## O=S(=O)(O)C(O)C(F)(F)C(F)(F)C(F)(F)C(F)(F)C(O)S(=O)(=O)O (stereo not given)
dose: 60.0 mg/kg/injection, schedule: Q01DX005 (ip), vehicle: saline
  T/C: 103 % of control
dose: 120.0 mg/kg/injection, schedule: Q01DX005 (ip), vehicle: saline
  T/C: 103 % of control
dose: 240.0 mg/kg/injection, schedule: Q01DX005 (ip), vehicle: saline
  T/C: 103 % of control

## COC(=O)/C=C1\C2OC(C1C(=O)OC)C1OC(C)(C)OC21 (stereo not given)
[1]
  T/C: 99 % of control
[2]
  T/C: 103 % of control
[3]
  T/C: 96 % of control

## Cc1ccc([NH-])c(C(=O)O)c1.Cc1ccc([NH-])c(C(=O)O)c1.[Cu+2]
dose: 12.5 mg/kg/injection, schedule: Q01DX005 (ip), vehicle: saline with Tween-80
  T/C: 96 % of control
dose: 25.0 mg/kg/injection, schedule: Q01DX005 (ip), vehicle: saline with Tween-80
  T/C: 100 % of control
[1]
  T/C: 94 % of control

Reference: PubChem BioAssay AID330 (DTP/NCI, 2004)
